Measured values as given in US20150291565A1, “INDOLE COMPOUNDS AND THEIR USE AS ANTIMICROBIALS” (Memorial Sloan-Kettering Cancer Center, priority 2012, published 2015).
In brackets after ≈: the same amount, converted by molar mass. Like-named read-outs stand apart in the source and are kept apart here.

How the values were obtained:
Assay type in all cases: cell-based
[1] = test system: M. smegmatis Mc2155; experiment: MIC against M. smegmatis Mc2155; settings: Mycolicibacterium smegmatis
[2] = test system: S. aureus ATCC 29213 (MSSA); experiment: Broth dilution MIC, S. aureus ATCC 29213; settings: Staphylococcus aureus
[3] = test system: S. aureus BAA-39 (MDR); experiment: Broth dilution MIC, S. aureus BAA-39; settings: for MIC: Staphylococcus aureus, BAA39
[4] = test system: E. faecalis ATCC 29212 (VRE); experiment: Broth dilution MIC, E. faecalis ATCC 29212
[5] = test system: E. faecium ATCC 700221 (VRE); experiment: Broth dilution MIC, E. faecium ATCC 700221
[6] = test system: E. faecium CT-26; experiment: Broth dilution MIC, E. faecium CT-26; settings: Enterococcus faecium
[7] = test system: E. coli ECM 1694; experiment: Broth dilution MIC, E. coli ECM 1694; settings: Escherichia coli
[8] = test system: K. pneumoniae ATCC 13883; experiment: Broth dilution MIC, K. pneumoniae ATCC 13883; settings: Klebsiella pneumoniae
[9] = test system: Mycobacterium tuberculosis; experiment: Time kill curve, liquid culture, M. tuberculosis; settings: 1.9 micromolar; vs DMSO control; FIG. 1 left-hand graph
Description: Either Mycobacterium tuberculosis or Mycobacterium smegmatis liquid cultures were incubated with SKI-1 (356313) at a concentration of 1.9 micromolar and viable bacterial titer was determined over the time period indicated by culturing serial dilutions on agar media. Control cultures were treated with an equivalent volume of DMSO.

[10] = test system: Mycobacterium smegmatis; experiment: Time kill curve, liquid culture, M. smegmatis; settings: 1.9 micromolar; vs DMSO control; FIG. 1 right-hand graph
[11] = test system: M. tuberculosis; experiment: Testing against M. tuberculosis; settings: recent testing

c1cc(C2=NCCN2)ccc1Nc1ccc(-c2cc3ccc(C4=NCCN4)cc3[nH]2)cc1 [SKI-1] showed an MIC [1] of 0.2 µM (≈ 0.0841 µg/mL), an MIC ([2]; Table 3, starting at 4 μg/ml, read-out: MIC S. aureus ATCC 29213) of 0.25 µg/mL (≈ 0.595 µM) and an MIC ([2]; Table 1, range 64 down to 0.12 μg/ml, read-out: MIC S. aureus ATCC 29213) of 0.25 µg/mL (≈ 0.595 µM). The MIC ([2]; Table 2, broth dilution MIC in ug/ml, read-out: MIC S aureus ATCC 29213 MSSA) was 0.25 µg/mL (≈ 0.595 µM), the MIC ([2]; Table 4, broth dilution MIC according to CLSI standards (NAEJA), read-out: MIC MSSA S. aureus ATCC 29213) was 0.25 µg/mL (≈ 0.595 µM) and the MIC ([3]; Table 1, range 64 down to 0.12 μg/ml, read-out: MIC S. aureus BAA-39) was 0.25 µg/mL (≈ 0.595 µM). For the same compound, the MIC ([3]; Table 2, broth dilution MIC in ug/ml, read-out: MIC S aureus BAA-39 MDR) was 0.25 µg/mL (≈ 0.595 µM), the MIC ([3]; Table 4, broth dilution MIC according to CLSI standards (NAEJA), read-out: MIC MDR S. aureus BAA-39) was 0.25 µg/mL (≈ 0.595 µM) and the “MIC S. aureus BAA-39” value ([3]; Table 3, starting at 4 μg/ml) was 0.25 µg/mL (≈ 0.595 µM). For the same compound, the MIC ([4]; Enterococcus faecalis, Table 1, range 64 down to 0.12 μg/ml, read-out: MIC E. faecalis ATCC 29212) was 0.25 µg/mL (≈ 0.595 µM), the MIC ([4]; Enterococcus faecalis, Table 4, broth dilution MIC according to CLSI standards (NAEJA), read-out: MIC VRE E. faecalis ATCC 29212) was 0.12 µg/mL (≈ 0.285 µM) and the MIC ([4]; Table 2, broth dilution MIC in ug/ml, read-out: MIC E faecalis ATCC 29212 VRE) was 0.25 µg/mL (≈ 0.595 µM). For the same compound, the “MIC E. faecalis ATCC 29212” value ([4]; Table 3, starting at 4 μg/ml) was 0.25 µg/mL (≈ 0.595 µM), the MIC ([5]; Enterococcus faecium, Table 1, range 64 down to 0.12 μg/ml, read-out: MIC E. faecium ATCC 700221) was no more than 0.12 µg/mL and the MIC ([5]; Enterococcus faecium, Table 3, starting at 4 μg/ml, read-out: MIC E. faecium ATCC 700221) was 0.06 µg/mL (≈ 0.143 µM). The MIC ([5]; Enterococcus faecium, Table 4, broth dilution MIC according to CLSI standards (NAEJA), read-out: MIC VRE E. faecium ATCC 700221) was 0.03 µg/mL (≈ 0.0713 µM), the MIC ([5]; Table 2, broth dilution MIC in ug/ml, read-out: MIC E faecium ATCC 700221 VRE) was 0.06 µg/mL (≈ 0.143 µM) and the MIC ([6]; CT26, Table 1, range 64 down to 0.12 μg/ml, read-out: MIC E. faecium CT-26) was no more than 0.12 µg/mL. The MIC ([6]; CT26, Table 2, broth dilution MIC in ug/ml, read-out: MIC E faecium CT-25) was 0.06 µg/mL (≈ 0.143 µM), the MIC ([6]; CT26, Table 3, starting at 4 μg/ml, read-out: MIC E. faecium CT-26) was 0.06 µg/mL (≈ 0.143 µM) and the MIC ([6]; CT26, Table 4, broth dilution MIC according to CLSI standards (NAEJA), read-out: MIC E. faecium CT-26) was 0.015 µg/mL (≈ 0.0357 µM). The MIC ([7]; ECM1694, Table 1, range 64 down to 0.12 μg/ml, read-out: MIC E. coli ECM 1694) was 0.25 µg/mL (≈ 0.595 µM), the MIC ([7]; ECM1694, Table 2, broth dilution MIC in ug/ml, read-out: MIC E. coli ECM 1693) was 0.25 µg/mL (≈ 0.595 µM) and the MIC ([7]; ECM1694, Table 3, starting at 4 μg/ml, read-out: MIC E. coli ECM 1694) was 0.5 µg/mL (≈ 1.19 µM). For the same compound, the MIC ([7]; ECM1694, Table 4, broth dilution MIC according to CLSI standards (NAEJA), read-out: MIC E. coli ECM 1694) was 0.25 µg/mL (≈ 0.595 µM), the MIC ([8]; ATCC13883, Table 1, range 64 down to 0.12 μg/ml, read-out: MIC K. pneumoniae ATCC 13883) was 1 µg/mL (≈ 2.38 µM) and the MIC ([8]; ATCC13883, Table 2, broth dilution MIC in ug/ml, read-out: MIC K pneumonia ATCC 13883) was 1 µg/mL (≈ 2.38 µM). The MIC ([8]; ATCC13883, Table 4, broth dilution MIC according to CLSI standards (NAEJA), read-out: MIC K. pneumoniae ATCC 13883) was 0.5 µg/mL (≈ 1.19 µM), the “Viable bacterial titer over time (time kill curve)” value [9] was “bactericidal” and the “Viable bacterial titer over time (time kill curve)” value [10] was “bactericidal”. The “Activity against M. tuberculosis” value [11] was “comparable to that observed for M. smegmatis”.
